Assay results published in patent US20020156115A1, “Insecticidal and acaricidal composition, and methods of using the same” (AGRO-KANESHO CO., LTD., priority 1999, published 2002).

Experiments:
Type in all cases: in vivo
[1] = system: two-spotted red spiders (Tetranychus telarius); experiment: Acaricidal effect of a low concentration (12.5 ppm) on two-spotted red spiders; settings: leaf immersion, female imagoes, fifth day after treatment, 25° C.
Description: (§1) A stem of green bean seedling having only one primary left was placed in a test tube (capacity: 50 ml) containing water. 15 female imagoes of two-spotted red spiders were put on each leaf. One day after, the leaf having the two-spotted red spiders was immersed (about 5 seconds) in the present insecticide diluted with water, which had been prepared according to the Preparation Example, (concentration: 500 ppm, repetition: twice). They were kept in a constant-temperature room at 25° C. On the fifth day after the treatment, the female imagoes on the leaf of the green bean seedling were observed. The imago-killing rate (%) was determined on the basis of the results of the observation to obtain the results shown in Table 6.
Acaricidal Effect of a Low Concentration of Acaricide on Larvae of Two-Spotted Red Spiders (Tetranychus telarius)
The same tests as those of Test Example 2 were repeated except that the concentration of the acaricide was changed to 12.5 ppm.

[2] = system: two-spotted red spiders (Tetranychus telarius); experiment: Acaricidal effect on two-spotted red spiders, imago-killing rate, 500 ppm leaf immersion; settings: female imagoes on green bean leaf, leaf immersion about 5 seconds, concentration 500 ppm, fifth day after treatment, 25° C.
Description: as §1, with “Acaricidal Effect on Larvae of Two-Spotted Red Spiders (Tetranychus telarius): A” for “A”

[3] = system: eggs of two-spotted red spiders (Tetranychus telarius); experiment: Acaricidal effect on eggs of two-spotted red spiders, ovicidal rate, 500 ppm spray; settings: eggs on green bean leaf disc; spray 3.5 ml; concentration 500 ppm; 8 days after treatment
Description: Acaricidal Effect on Eggs of Two-Spotted Red Spiders (Tetranychus telarius) 5 female imagoes of two-spotted red spiders were released on a green been leaf disc (diameter: 3 cm). Then, the imagoes were left to lay eggs on the leaf disc for 20 hours and then removed therefrom. The present acaricide which had been prepared according to Preparation Example 1 was diluted with water to a predetermined concentration. 3.5 ml of the preparation thus obtained was sprayed with a rotary spraying column (Mizuho Rika) over the disc (concentration: 500 ppm, repetition: twice). 8 days after the treatment, the number of unhatched eggs was counted to determine the ovicidal rate (%).

SMILES	acaricidal effect [1] [%]	Acaricidal rate (%) [2] [%]	Ovicidal rate (%) [3] [%]
CCc1nn(CC)c(/C(=C\OC)C(=O)OC)c1C#Cc1cc(C(F)(F)F)cc(C(F)(F)F)c1 [Table 1-28]	100	100	100
CO/C=C(/C(=O)OC)c1c(COc2ccc(OC(F)(F)F)cc2)c(C)nn1C [Table 3-63]		100	100
CO/C=C(/C(=O)OC)c1c(C#Cc2cc(C(F)(F)F)cc(C(F)(F)F)c2)c(-c2ccccc2)nn1C [Table 1-19]	100	100	100
CO/C=C(/C(=O)OC)c1c(OCc2cccc(Oc3ccc(C(F)(F)F)cc3Cl)c2)c(C)nn1C [Table 2-11]		100	100
CO/C=C(/C(=O)OC)c1c(OCc2sc(Oc3ccc(C(F)(F)F)cc3)nc2C)c(C)nn1C [Table 2-14]		100	100
CO/C=C(/C(=O)OC)c1c(CSc2ccc(C(F)(F)F)cc2)c(C)nn1C [Table 3-66]		100	100
COC=C(C(=O)OC)c1c(OCc2ccc(Cl)cc2Cl)c(C)nn1C [Table 2-18]		100	100
C#CCN(C(=O)OC)c1c(OCc2ccccc2)c(C)nn1C [Table 4-23]		100	100
CCc1nn(C)c(/C(=N\OC)C(=O)NC)c1CON=C(C)c1ccc(OC(F)(F)F)cc1 [Table 3-75]		100	100
CO/C=C(/C(=O)OC)c1c(C#Cc2cc(C(F)(F)F)cc(C(F)(F)F)c2)c(-c2ccc(C(F)(F)F)cc2)nn1C [Table 1-36]	100		
CO/C=C(/C(=O)OC)c1c(COc2ccc(C(F)(F)F)cc2)c(C)nn1C [Table 3-61]		100	100
CO/C=C(/C(=O)OC)c1c(OCc2cccc(Oc3ccc(F)cc3)c2)c(C)nn1C [Table 2-21]		100	100
CO/C=C(/C(=O)OC)c1c(C#Cc2cc(C(F)(F)F)cc(C(F)(F)F)c2)c(C(C)(C)C)nn1C [Table 1-18]	100	100	100
C#CCN(C(=O)OC)c1c(OCc2cc(Cl)ccc2Cl)c(C)nn1C [Table 4-40]		100	100
CO/C=C(/C(=O)OC)c1c(OCc2cc(C(F)(F)F)ccc2C(F)(F)F)c(C)nn1C [Table 2-25]		100	100
CO/C=C(/C(=O)OC)c1c(OCc2ccc(F)c(Oc3ccccc3)c2)c(C)nn1C [Table 2-7]		100	100
CCc1nn(CC)c(/C(=C\OC)C(=O)OC)c1OCc1nc(Cl)cc(C(F)(F)F)n1 [Table 2-33]		100	100
CO/C=C(/C(=O)OC)c1c(OCc2ccc(Oc3ncc(C(F)(F)F)cc3Cl)cc2)c(C)nn1C [Table 2-13]		100	100
CO/C=C(/C(=O)OC)c1c(OCc2ccccc2C(F)(F)F)c(C)nn1C [Table 2-23]		100	100
CO/C=C(/C(=O)OC)c1c(OCc2ccc(OC(F)F)cc2)c(C(F)(F)F)nn1C [Table 2-30]		100	100
CCCc1nn(C)c(/C(=C/OC)C(=O)OC)c1C#Cc1cc(C(F)(F)F)cc(C(F)(F)F)c1 [Table 1-16]	100	100	100
CO/C=C(/C(=O)OC)c1c(OCc2ccc(Oc3ccc(C(F)(F)F)cc3)cc2)c(C)nn1C [Table 2-2]		100	100
CCCc1nn(C)c(/C(=C\OC)C(=O)OC)c1C#Cc1cc(C(F)(F)F)cc(C(F)(F)F)c1 [Table 1-15]	100	100	100
CCn1nc(C(F)(F)F)c(C#Cc2cc(C(F)(F)F)cc(C(F)(F)F)c2)c1/C(=C\OC)C(=O)OC [Table 1-39]	100	100	100

SMILES	acaricidal effect [1] [%]	Acaricidal rate (%) [2] [%]	Ovicidal rate (%) [3] [%]
CO/C=C(/C(=O)OC)c1c(OCc2cccc(Oc3ccc(Cl)cc3)c2)c(C)nn1C [Table 2-9]		100	100
CO/C=C(/C(=O)OC)c1c(OCc2cccc(Oc3ccc(C)cc3)c2)c(C)nn1C [Table 2-12]		100	100
CO/C=C(/C(=O)OC)c1c(OCc2cc(Cl)ccc2Cl)c(C)nn1C [Table 2-22]		100	100
CO/C=C(/C(=O)OC)c1c(C#Cc2ccc(OC(F)F)cc2)c(C)nn1C [Table 1-30]	100	100	100
CO/C=C(/C(=O)OC)c1c(OCc2cccc(Oc3cccc(C(F)(F)F)c3)c2)c(C)nn1C [Table 2-6]		100	100
CO/C=C(/C(=O)OC)c1c(CON=C(C)c2cccc(OC(F)F)c2)c(C)nn1C [Table 3-102]		100	100
CO/C=C(/C(=O)OC)c1c(C#Cc2cc(Cl)cc(Cl)c2)c(C)nn1C [Table 1-6]	100	100	100
CO/N=C(/C(=O)OC)c1c(CON=C(C)c2ccc(C(F)(F)F)cc2)c(C)nn1C [Table 3-90]		100	100
CCc1nn(CC)c(/C(=C\OC)C(=O)OC)c1OCc1nc(OC(C)C)cc(C(F)(F)F)n1 [Table 2-32]		100	100
CO/C=C(/C(=O)OC)c1c(OCc2ccc(F)cc2C(F)(F)F)c(C)nn1C [Table 2-24]		100	100
CO/C=C(/C(=O)OC)c1c(C#Cc2cc(C)cc(C)c2)c(C)nn1C [Table 1-9]		96	80
CCn1nc(C(F)(F)F)c(C#Cc2cc(C(F)(F)F)cc(C(F)(F)F)c2)c1/C(=C/OC)C(=O)OC [Table 1-40]	100	100	100
CO/C=C(/C(=O)OC)c1c(OCc2cc(C(C)(C)C)ccc2C)c(C)nn1C [Table 2-15]		100	100
CO/C=C(/C(=O)OC)c1c(OCc2ccc(OC(F)(F)F)cc2)c(C(F)(F)F)nn1C [Table 2-29]		100	100
CCn1nc(C(F)(F)F)c(C#Cc2nc(OC(C)C)cc(C(F)(F)F)n2)c1/C(=C\OC)C(=O)OC [Table 1-37]	100	100	100
C#CCN(C(=O)OC)c1c(OCc2cccc(OCc3ccccc3)c2)c(C)nn1C [Table 4-85]		100	100
CO/C=C(/C(=O)OC)c1c(OCc2cc(C(F)(F)F)cc(C(F)(F)F)c2)c(C(F)(F)F)nn1C [Table 2-26]	100	100	100
COC=C(C(=O)OC)c1c(C#Cc2cc(C(F)(F)F)cc(C(F)(F)F)c2)c(C(F)(F)F)nn1C [Table 1-20, Methyl α-[1-methyl-3-trifluoromethyl-4{3,5-bis(trifluoromethyl)phenylethynyl}-5-pyrazole]-β-methoxyacrylate]	100	100	100
CO/C=C(/C(=O)OC)c1c(OCc2cnc(OC(C)C(F)(F)F)s2)c(C)nn1C (racemic) [Table 2-19]		100	100
CO/C=C(/C(=O)OC)c1c(OCc2cccc(Oc3ccc(Cl)c(Cl)c3)c2)c(C)nn1C [Table 2-20]		100	100
CNC(=O)C(=NOC)c1c(CON=C(C)c2ccc(C(F)(F)F)cc2)c(C)nn1C [Table 3-92]		100	100
CO/C=C(/C(=O)OC)c1c(OCc2ccc(Cl)c(Cl)c2)c(C)nn1C [Table 2-16]		96	80
CO/C=C(/C(=O)OC)c1c(OCc2ccc(Oc3ccc(Cl)c(Cl)c3)cc2)c(C)nn1C [Table 2-10]		100	100
